Test results taken from patent publication US20090110671A1, “AGENT FOR ENHANCHING THE PRODUCTION OF COLLAGEN AND IT'S USE” (priority 2005, published 2009).

Assays:
[1] = tested on: skin wrinkles/finely-wrinkles and flabby skin; assay: Experiment 5: self-evaluation of lotions on skin wrinkles/finely-wrinkles and flabby skin, four months; format: in vivo, human; settings: lotion, no saccharide, 3 times a day, 4 months
Experimental: The following experiment was conducted to examine the influence of α,α-trehalose or saccharide derivatives thereof and hyaluronic acid and/or chondroitin sulfate on the skin. Since there exists a relatively constant amount of L-ascorbic acid in vivo, the collagen production by L-ascorbic acid proceeds constantly. Based on the following basic formulation for lotion and the combination and composition in Table 5, 100 parts by weights of a lotion was prepared by adding to the basic formulation sodium hyaluronate, chondroitin sulfate, hydrous crystalline α,α-trehalose, a cosmetic grade specimen commercialized by Hayashibara Biochemical Laboratories Inc., Okayama, Japan, and “[…]”, a product name of a syrup having a solid content of about 75% and containing, on a dry solid basis, about 53% by weight of α-maltosyl α,α-trehalose and about 5% by weight of other saccharide derivatives of α,α-trehalose, and an adequate amount of refined water. In Table 5, the respective amounts of the added saccharide are expressed on a dry solid basis. The syrup containing saccharide derivatives of α,α-trehalose was added in an amount of the saccharide derivatives as shown in Table 5. Eleven women as volunteers, who had been suffering from skin wrinkles/finely-wrinkles or flabby skin, were allowed to wash their faces with any of the lotions having compositions in Table 5 three times a day for four months and then allowed to evaluate themselves about their face-skin conditions by comparing with those before use of the lotions.

NHDF cells [2] = assay: Experiment 4: collagen production in NHDF cells, saccharides combined with hyaluronic acid and/or chondroitin sulfate; format: cell-based, human
Source text: Influence of α,α-trehalose or a saccharide derivative thereof, or a combination use of any of these saccharides and hyaluronic acid and/or chondroitin sulfate on the collagen production by L-ascorbic acids was examined as follows. AA-2G and any one of hydrous crystalline α,α-trehalose, a reagent grade specimen commercialized by Hayashibara Biochemical Laboratories Inc., Okayama, Japan; α-maltosyl α,α-trehalose with a purity of at least 98% commercialized by Hayashibara Biochemical Laboratories Inc., Okayama, Japan; and “HALLODEX”, a product name of a syrup of saccharide derivatives of α,α-trehalose were dissolved in D-MEM medium to give final concentrations of 50 μM of AA-2G and 15.0 mg/ml of saccharides. Further, as another test solutions, those, which had been prepared similarly as in the above, were admixed with any one of hyaluronic acid, chondroitin sulfate, and a combination thereof to give respective concentrations of 1 mg/ml, 1 mg/ml, and 0.5 mg/ml of hyaluronic acid and chondroitin sulfate each. The medium supplemented with a syrup containing about 59%, d.s.b., of saccharide derivatives of α,α-trehalose was prepared to give a concentration of 15.0 mg/ml of the saccharide derivatives of α,α-trehalose contained in the syrup. The culture of NHDF cells and the quantification of collagen-production level thereof were carried out similarly as in Experiment 1. The results are in Table 4 where the values are expressed with relative values in terms of the collagen-production level of NHDF cells, being regarded as 100, when cultured in D-MEM medium containing AA-2G.

NHDF cells [3] = assay: Experiment 2: collagen sedimented over cell surface and released in supernatant of NHDF cells, α,α-trehalose or maltose with AA-2G; format: cell-based, human
Experimental: Influence of α,α-trehalose and maltose on collagen production using NHDF cells was examined by the following experiment: Test solutions were prepared by dissolving either AA-2G; hydrous crystalline α,α-trehalose, a reagent grade specimen, commercialized by Hayashibara Biochemical Laboratories Inc., Okayama, Japan; or hydrous crystalline maltose, a reagent grade specimen, commercialized by Hayashibara Biochemical Laboratories Inc., Okayama; Japan, in […] The methods for culturing NHDF cells and quantifying the collagen-production level of the cells were conducted similarly as in Experiment 1. The collagen level in each culture supernatant of NHDF cells was determined in such a manner of collecting the culture supernatant and quantifying the collagen released in the supernatant by using “Sircol Collagen Quantification Kit”. As a control, D-MEM medium containing 50 μM AA-2G was used. These control and test solutions were respectively experimented using three wells, followed by calculating a mean value for collagen-production levels in the wells. The results are in Table 2 where the values are expressed with relative values for either or both of the levels of collagen, that had sedimented over the cell surfaces or released in the supernatants, in terms of their collagen-production levels of NHDF cells, which had been cultured in D-MEM medium containing 50 μM AA-2G, being regarded as 100.

NHDF cells [4] = assay: Experiment 3: collagen production in NHDF cells, α,α-trehalose and saccharide derivatives with or without AA-2G; format: cell-based, human
Experimental: Based on the confirmation that α,α-trehalose has an action of enhancing the collagen production by L-ascorbic acid, it was experimented as follows to confirm whether saccharide derivatives of α,α-trehalose have such a similar action and effect. Test solutions were prepared by dissolving in D-MEM medium any one of AA-2G, hydrous crystalline α,α-trehalose, a reagent grade specimen with a purity of at least 98%, commercialized by Hayashibara Biochemical Laboratories Inc., Okayama, Japan; “HALLODEX”, a product name of a syrup of saccharide derivatives of α,α-trehalose, having a solid content of about 75% and containing, on a dry solid basis, about 53% of α-maltosyl α,α-trehalose and about 5% of other saccharide derivatives of α,α-trehalose in total, to give final concentrations of 50 μM of AA-2G and 15.0 mg/ml of saccharides. As a control, test solutions were prepared by dissolving in D-MEM medium either of the above hydrous crystalline α,α-trehalose, α-maltosyl α,α-trehalose, or syrup of saccharide derivatives of α,α-trehalose to give a final concentration of 15.0 mg/ml. The medium admixed with the syrup containing saccharide derivatives of α,α-trehalose was adjusted to give a concentration of 15.0 mg/ml of saccharide derivatives of α,α-trehalose. The culture of NHDF cells and the quantification of collagen-production level thereof were carried out similarly as in Experiment 1. The results are in Table 3, where the values are expressed with relative values in terms of the collagen production level of NHDF cells, being regarded as 100, when cultured in D-MEM medium containing AA-2G.

[5] = tested on: NHDF cells (normal human dermal fibroblast cell); assay: Experiment 1: collagen production in NHDF cells (Sircol kit), α,α-trehalose with AA-2G; format: cell-based; settings: D-MEM with 50 μM AA-2G, no α,α-trehalose; reference regarded as 100
Experimental: Using “fibrocell NHDF”, a normal human dermal fibroblast cell, commercialized by Kurashiki Spinning Co., Ltd., Okayama, Japan (abbreviated as “NHDF cells”, hereinafter), experiment for studying the influence of α,α-trehalose on the collagen production by L-ascorbic acids was conducted based on the method described in Bioscience, Biotechnology, and Biochemistry, Vol. 68, No. 4, pp. 767-773, 2004. The method is outlined below: Test solutions were prepared by dissolving L-ascorbic acid 2-glucoside, a reagent grade specimen commercialized by Hayashibara Biochemical Laboratories Inc., Okayama, Japan (may be abbreviated as “AA-2G”, hereinafter), and α,α-trehalose, a reagent grade specimen commercialized by Hayashibara Biochemical Laboratories Inc., Okayama, Japan, in Dulbecco […] essential medium containing 10% (v/v) fetal calf serum and an antibiotic (abbreviated as “D-MEM”, hereinafter) to give a final concentration of 50 μM/ml of AA-2G and a final concentration of 7.5, 15 or 30 mg/ml of α,α-trehalose. NHDF cells, which had been successively cultured in D-MEM medium, were collected, re-suspended in a fresh preparation of D-MEM medium, inoculated to 96-well microplates at a cell concentration of 2.5×10^4 cells/200 μl/well, and cultured for 24 hours. Thereafter, the supernatants of the cultures were removed by sucking, and further cultured for five days after addition of any of the test solutions in a volume of 200 μl/well. As controls, the cells, which had been cultured for 24 hours, were further cultured for five days after addition of 200 μl/well of D-MEM medium, D-MEM medium supplemented with α,α-trehalose at a concentration of 30 mg/ml, or D-MEM medium supplemented with AA-2G at a concentration of 50 μM/ml. After completion of culturing, the supernatants of the cultures were removed by sucking, admixed with 50 μl/well of 1 M acetic acid solution containing 1 mg/ml of pepsin, and shaken for four hours to solubilize collagen adhered to the cell surfaces, followed by quantifying the content of collagen accumulated in the cells using “Sircol Collagen Quantification Kit”, commercialized by Biocolor Ltd. These control and test solutions were respectively experimented with three wells, followed by calculating a mean value for collagen-production levels in the wells. All the cultures of the NHDF cells were conducted in a 5% (v/v) CO2 incubator. The results are in Table 1 where the values are expressed with relative values in terms of the collagen-production level of NHDF cells, which had been cultured in D-MEM medium containing AA-2G, being regarded as 100.

[6] = sodium hyaluronate 0.5 part by weight
[7] = saccharide 0.2 mg/ml + 50 μM AA-2G, relative to AA-2G = 100
[8] = saccharide 0.6 mg/ml + 50 μM AA-2G, relative to AA-2G = 100
[9] = saccharide 1.7 mg/ml + 50 μM AA-2G, relative to AA-2G = 100
[10] = saccharide 5.0 mg/ml + 50 μM AA-2G, relative to AA-2G = 100
[11] = saccharide 15.0 mg/ml + 50 μM AA-2G, relative to AA-2G = 100
[12] = chondroitin sulfate 0.5 part by weight
[13] = D-MEM containing 50 μM AA-2G alone, reference regarded as 100

Molecule: sodium hyaluronate
- Evaluation A (remarkably efficacious) [1, 6]: 0 number of volunteers
- Evaluation B (efficacious) [1, 6]: 0 number of volunteers
- Evaluation C (slightly efficacious) [1, 6]: 2 number of volunteers
- Evaluation D (inefficacious) [1, 6]: 9 number of volunteers
- Collagen-production level (NHDF cells [2]; no saccharide, 50 μM AA-2G + sodium hyaluronate 1 mg/ml): 98

Molecule: OC[C@H]1O[C@H](O[C@H]2[C@H](O)[C@@H](O)C(O)O[C@@H]2CO)[C@H](O)[C@@H](O)[C@@H]1O (mixture of isomers) [maltose]
- Collagen-production level, In supernatant (NHDF cells [3]; [7]): 101
- Collagen-production level, Total (NHDF cells [3]; [7]): 99
- Collagen-production level, In supernatant (NHDF cells [3]; [8]): 134
- Collagen-production level, Total (NHDF cells [3]; [8]): 92
- Collagen-production level, In supernatant (NHDF cells [3]; [9]): 288
- Collagen-production level, Total (NHDF cells [3]; [9]): 97
- Collagen-production level, In supernatant (NHDF cells [3]; [10]): 256
- Collagen-production level, Total (NHDF cells [3]; [10]): 61
- Collagen-production level, In supernatant (NHDF cells [3]; [11]): 228
- Collagen-production level, Total (NHDF cells [3]; [11]): 44

Molecule: OC[C@H]1O[C@H](O[C@H]2O[C@H](CO)[C@@H](O[C@H]3O[C@H](CO)[C@@H](O[C@H]4O[C@H](CO)[C@@H](O)[C@H](O)[C@H]4O)[C@H](O)[C@H]3O)[C@H](O)[C@H]2O)[C@H](O)[C@@H](O)[C@@H]1O [α-Maltosyl α,α-trehalose, α-maltosyl α,α-trehalose]
- Collagen-production level (NHDF cells [4]; [11]): 182
- Collagen-production level (NHDF cells [4]; saccharide 15.0 mg/ml, AA-2G not added, relative to AA-2G = 100): 39
- Collagen-production level (NHDF cells [2]; saccharide 15.0 mg/ml + 50 μM AA-2G): 158
- Collagen-production level (NHDF cells [2]; saccharide 15.0 mg/ml + 50 μM AA-2G + chondroitin sulfate 1 mg/ml): 188
- Collagen-production level (NHDF cells [2]; saccharide 15.0 mg/ml + 50 μM AA-2G + hyaluronate and chondroitin sulfate 0.5 mg/ml each): 276
- Collagen-production level (NHDF cells [2]; saccharide 15.0 mg/ml + 50 μM AA-2G + sodium hyaluronate 1 mg/ml): 199
- Collagen-production level (NHDF cells [2]; saccharide 15.0 mg/ml alone, no AA-2G, no hyaluronate, no chondroitin sulfate): 39

Molecule: chondroitin sulfate
- Evaluation A (remarkably efficacious) [1, 12]: 0 number of volunteers
- Evaluation B (efficacious) [1, 12]: 0 number of volunteers
- Evaluation C (slightly efficacious) [1, 12]: 1 number of volunteers
- Evaluation D (inefficacious) [1, 12]: 10 number of volunteers
- Collagen-production level (NHDF cells [2]; no saccharide, 50 μM AA-2G + chondroitin sulfate 1 mg/ml): 97

Molecule: O=C1O[C@H]([C@@H](O)CO)C(O)=C1O[C@H]1O[C@H](CO)[C@@H](O)[C@H](O)[C@H]1O [AA-2G, L-ascorbic acid 2-glucoside, reference compound]
- Collagen-production level (NHDF cells [4]; no saccharide, 50 μM AA-2G added, reference regarded as 100): 100
- Collagen-production level [5]: 100
- Collagen-production level, In supernatant (NHDF cells [3]; [13]): 100
- Collagen-production level, Total (NHDF cells [3]; [13]): 100
- Collagen-production level (NHDF cells [2]; no saccharide, 50 μM AA-2G alone, reference regarded as 100): 100
